Measured values published in ChEMBL document CHEMBL5506002, “The discovery of potent USP2/USP8 dual-target inhibitors for the treatment of breast cancer via structure guided optimization of ML364” (Eur J Med Chem, 2024).

What was measured:
[1] = biological target: T1, Ubiquitin carboxyl-terminal hydrolase 8 (Homo sapiens, UniProt P40818); test: Inhibition of USP8 (unknown origin) using Di-Ub IQF K48-02 as substrate preincubated for 30 mins followed by substrate addition by high-throughput assay
T1 sequence (P40818 whole entry): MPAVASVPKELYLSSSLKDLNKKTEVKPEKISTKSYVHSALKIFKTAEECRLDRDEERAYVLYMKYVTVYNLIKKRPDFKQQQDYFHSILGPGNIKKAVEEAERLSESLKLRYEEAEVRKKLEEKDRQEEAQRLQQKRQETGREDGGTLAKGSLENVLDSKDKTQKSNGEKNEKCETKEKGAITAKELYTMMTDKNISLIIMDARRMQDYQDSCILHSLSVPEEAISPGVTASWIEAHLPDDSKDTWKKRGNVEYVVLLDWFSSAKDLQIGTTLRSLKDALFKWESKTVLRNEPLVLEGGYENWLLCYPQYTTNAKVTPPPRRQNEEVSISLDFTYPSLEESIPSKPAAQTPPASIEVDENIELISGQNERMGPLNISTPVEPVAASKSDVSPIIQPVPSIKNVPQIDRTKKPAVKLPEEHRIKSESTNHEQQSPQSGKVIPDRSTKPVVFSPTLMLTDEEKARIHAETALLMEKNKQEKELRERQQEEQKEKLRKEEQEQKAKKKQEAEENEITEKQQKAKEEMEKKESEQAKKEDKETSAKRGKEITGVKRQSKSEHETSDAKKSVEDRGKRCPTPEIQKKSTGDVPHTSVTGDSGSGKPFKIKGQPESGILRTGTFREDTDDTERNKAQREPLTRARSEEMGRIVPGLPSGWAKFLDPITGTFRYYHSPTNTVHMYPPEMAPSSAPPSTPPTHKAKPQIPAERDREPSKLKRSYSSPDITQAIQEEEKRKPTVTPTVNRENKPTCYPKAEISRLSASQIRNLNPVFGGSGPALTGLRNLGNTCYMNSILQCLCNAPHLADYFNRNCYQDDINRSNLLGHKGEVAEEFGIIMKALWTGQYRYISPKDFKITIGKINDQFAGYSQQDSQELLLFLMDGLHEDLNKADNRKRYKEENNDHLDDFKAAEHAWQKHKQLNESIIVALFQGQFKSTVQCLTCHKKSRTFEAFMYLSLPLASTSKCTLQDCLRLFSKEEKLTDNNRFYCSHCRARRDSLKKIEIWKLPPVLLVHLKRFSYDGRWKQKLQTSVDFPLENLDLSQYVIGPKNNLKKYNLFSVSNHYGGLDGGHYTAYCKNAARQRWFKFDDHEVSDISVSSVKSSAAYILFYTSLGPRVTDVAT

[2] = biological target: T2, Ubiquitin carboxyl-terminal hydrolase 2 (Homo sapiens, UniProt O75604); test: Inhibition of USP2 (unknown origin) using Di-Ub IQF K48-4 as substrate preincubated for 10 mins followed by substrate addition by high-throughput assay
T2 sequence (O75604 whole entry): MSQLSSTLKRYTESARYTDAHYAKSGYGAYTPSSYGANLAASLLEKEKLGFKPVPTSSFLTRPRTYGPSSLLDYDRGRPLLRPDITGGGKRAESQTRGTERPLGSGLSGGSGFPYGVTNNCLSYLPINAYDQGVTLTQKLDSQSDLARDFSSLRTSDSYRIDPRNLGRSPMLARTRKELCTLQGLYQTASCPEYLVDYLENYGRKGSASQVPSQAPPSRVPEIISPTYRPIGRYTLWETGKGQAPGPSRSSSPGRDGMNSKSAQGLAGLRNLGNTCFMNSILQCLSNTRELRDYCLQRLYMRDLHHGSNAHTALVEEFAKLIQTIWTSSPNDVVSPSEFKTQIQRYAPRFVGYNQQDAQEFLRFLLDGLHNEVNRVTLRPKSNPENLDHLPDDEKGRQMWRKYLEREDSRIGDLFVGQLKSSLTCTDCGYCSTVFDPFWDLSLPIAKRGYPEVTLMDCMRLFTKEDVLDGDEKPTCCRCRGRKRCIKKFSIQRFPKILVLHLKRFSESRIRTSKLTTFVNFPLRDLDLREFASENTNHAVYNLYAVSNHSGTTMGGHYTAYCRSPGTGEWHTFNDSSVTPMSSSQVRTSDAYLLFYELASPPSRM

[3] = biological target: T1, Ubiquitin carboxyl-terminal hydrolase 8; test: Inhibition of N-terminal His6 tagged USP8 (734 to 1110 residues) (unknown origin) expressed in Escherichia coli BL21 (DE3) cells using ubiquitin-rhodamine-110 as substrate preincubated with compound for 30 mins followed by substrate addition measured after 30 mins by fluorometric assay
in vitro [4] = settings: mouse, plasma
Description: Stability in mouse plasma assessed as compound remaining measured after 30 mins

[5] = Cytotoxicity against human MCF-10A cells assessed as inhibition of cell growth incubated for 72 hrs by MTT assay; type: toxicity, cell-based
[6] = biological target: T2, Ubiquitin carboxyl-terminal hydrolase 2; test: Inhibition of USP2 (267 to 599 residues) (unknown origin) expressed in Escherichia coli BL21 (DE3) cells using ubiquitin-rhodamine-110 as substrate preincubated with compound for 30 mins followed by substrate addition measured after 30 mins by fluorometric assay
in vitro [7] = settings: human, microsomes
Description: Stability in human microsomes assessed as compound remaining measured after 30 mins

in vitro [8] = settings: mouse, microsomes
Description: Stability in mouse microsomes assessed as compound remaining measured after 30 mins

MCF7 = test: Antiproliferative activity against human MCF7 cells assessed as inhibition of cell growth incubated for 72 hrs by MTT assay; type: functional, cell-based; settings: MCF7, 72 h

Structure (SMILES)	IC50 [1] [µM]	IC50 [2] [µM]	IC50 [3] [µM]	remaining at 0.5 h (in vitro [4]) [%]	IC50 at 72 h [5] [µM]	IC50 [6] [µM]	remaining at 0.5 h (in vitro [7]) [%]	remaining at 0.5 h (in vitro [8]) [%]	IC50 (MCF7) [µM]
CCCCS(=O)(=O)Cc1nc2c(nc1CS(=O)(=O)CCCC)C(=O)c1ccccc1C2=O	< 0.1	< 0.8	–	–	–	–	–	–	–
Cc1ccc(S(=O)(=O)Nc2cc(C(F)(F)F)ccc2C(=O)Nc2nc(-c3ccccc3)cs2)cc1	–	–	4.7	> 90	14.5	3.6	> 90	72	9.3
